One molecule from article PMC9295568, “Dual Inhibition of Vacuolar-ATPase and TMPRSS2 Is Required for Complete Blockade of SARS-CoV-2 Entry into Cells” (Antimicrobial Agents and Chemotherapy, 2022) can be followed below.

Format in all cases: cell-based
Test [1] concerns SARS-CoV-2 PsV D614G. The conditions noted are these: read-out: IC50, inhibition of PsV entry.
Test [2] relates to SARS-CoV-2 PsV D614G. The conditions noted are these: read-out: IC50, inhibition of PsV entry. The source holds these as a separate data set.
Test [3] relates to SARS-CoV-2 PsV B.1.1.529 (Omicron). In words: microbe, parasite or virus in culture. To be noted: Omicron variant, Vero-TMPRSS2 cells.

Read-outs that look alike come from different tables or passages of the source. Bounds are passed on as bounds.

One may read the IC50 as the midpoint of a concentration-inhibition curve. For the molecule `CN(C)C(=O)COC(=O)Cc1ccc(OC(=O)c2ccc(NC(=N)N)cc2)cc1` [Camostat], the concentration for half-maximal inhibition (IC50) is above 300000 nM in the test on SARS-CoV-2 PsV D614G [1] and 199 nM in the test on SARS-CoV-2 PsV D614G [2]. For the same molecule, in test [3], the “inhibition of PsV entry (in words)” value is listed as “unable to inhibit”.
